In ChEMBL document CHEMBL5532679, “Discovery and Characterization of RGH-122, a Potent, Selective, and Orally Bioavailable V1a Receptor Antagonist” (J Med Chem, 2024):

Assays:
[1] = Efflux ratio of apparent permeability across basolateral to apical side over apical to basolateral side in vinblastine treated human Caco-2 cells at 1 to 10 uM incubated for 15 to 60 hrs by HPLC analysis
Vasopressin V1a receptor [2] = target: T1, Vasopressin V1a receptor (Homo sapiens, UniProt P37288)
Description: Antagonist activity at human V1A receptor expressed in human 1321N1 cells assessed as Ca2+ mobilization incubated for 15 mins by FLIPR calcium 5 assay

[3] = human, microsomes, 1 µM
in vitro [4] = conditions: Wistar, rat, microsomes
in vitro [5] = conditions: NMRI, mouse, microsomes
animal or person [6] = conditions: Mus musculus, NMRI, read-out: INH
[7] = Apparent permeability of compound across apical to basal side in vinblastine treated human Caco-2 cells at 1 to 10 uM incubated for 15 to 60 mins by HPLC analysis
[8] = target: Voltage-gated inwardly rectifying potassium channel KCNH2 (Homo sapiens, UniProt Q12809)
Description: Inhibition of hERG expressed in CHO cells at -80 mV holding potential incubated for 7 to 10 mins by automated patch clamp method

in vitro [9] = conditions: CD-1, mouse, liver microsomes
in vitro [10] = conditions: human, microsomes
Vasopressin V1a receptor [11] = target: T1, Vasopressin V1a receptor; remark: listed apart in the source
Description: Displacement of [3H]vasopressin from human V1A receptor assessed as inhibition constant by Cheng-Prusoff equation analysis

animal or person [12] = conditions: Mus musculus, NMRI, po, read-out: INH
animal or person [13] = conditions: Mus musculus, NMRI, po, read-out: INH; remark: listed apart in the source
animal or person [14] = conditions: Rattus norvegicus, po, read-out: INH
Cytochrome P450 1A2 = target: T2, Cytochrome P450 1A2 (Homo sapiens, UniProt P05177); test: Inhibition of CYP1A2 (unknown origin); format: ADME
T2 sequence (P05177 whole entry): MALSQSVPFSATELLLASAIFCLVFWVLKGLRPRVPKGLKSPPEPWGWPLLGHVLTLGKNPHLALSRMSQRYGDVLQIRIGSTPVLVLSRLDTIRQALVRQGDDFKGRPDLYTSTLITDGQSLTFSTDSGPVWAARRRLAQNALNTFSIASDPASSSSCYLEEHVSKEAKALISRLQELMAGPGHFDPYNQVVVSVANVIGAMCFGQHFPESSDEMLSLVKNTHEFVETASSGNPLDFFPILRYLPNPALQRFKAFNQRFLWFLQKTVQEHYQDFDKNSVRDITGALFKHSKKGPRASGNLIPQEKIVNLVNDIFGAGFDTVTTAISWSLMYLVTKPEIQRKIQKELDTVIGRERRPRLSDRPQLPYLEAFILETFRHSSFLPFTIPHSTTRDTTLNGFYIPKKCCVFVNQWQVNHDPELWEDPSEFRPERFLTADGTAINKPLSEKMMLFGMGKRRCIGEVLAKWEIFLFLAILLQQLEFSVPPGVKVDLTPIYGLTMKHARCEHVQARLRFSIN

Cytochrome P450 2B6 = target: T3, Cytochrome P450 2B6 (Homo sapiens, UniProt P20813); test: Inhibition of CYP2B6 (unknown origin); format: ADME
T3 sequence (P20813 whole entry): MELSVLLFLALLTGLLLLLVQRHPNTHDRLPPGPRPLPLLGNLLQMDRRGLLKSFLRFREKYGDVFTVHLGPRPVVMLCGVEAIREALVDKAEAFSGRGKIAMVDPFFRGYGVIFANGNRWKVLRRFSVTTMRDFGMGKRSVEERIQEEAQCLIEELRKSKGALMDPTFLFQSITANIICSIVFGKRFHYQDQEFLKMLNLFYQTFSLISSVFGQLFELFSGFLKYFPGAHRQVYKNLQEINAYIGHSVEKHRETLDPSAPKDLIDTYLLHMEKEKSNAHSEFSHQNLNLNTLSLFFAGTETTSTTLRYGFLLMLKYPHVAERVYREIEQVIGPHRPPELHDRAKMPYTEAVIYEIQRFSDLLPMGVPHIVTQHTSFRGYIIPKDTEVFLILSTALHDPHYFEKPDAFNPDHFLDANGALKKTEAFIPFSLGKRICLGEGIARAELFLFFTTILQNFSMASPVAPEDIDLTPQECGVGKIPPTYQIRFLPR

Cytochrome P450 2C8 = target: T4, Cytochrome P450 2C8 (Homo sapiens, UniProt P10632); test: Inhibition of CYP2C8 (unknown origin); format: ADME
T4 sequence (P10632 whole entry): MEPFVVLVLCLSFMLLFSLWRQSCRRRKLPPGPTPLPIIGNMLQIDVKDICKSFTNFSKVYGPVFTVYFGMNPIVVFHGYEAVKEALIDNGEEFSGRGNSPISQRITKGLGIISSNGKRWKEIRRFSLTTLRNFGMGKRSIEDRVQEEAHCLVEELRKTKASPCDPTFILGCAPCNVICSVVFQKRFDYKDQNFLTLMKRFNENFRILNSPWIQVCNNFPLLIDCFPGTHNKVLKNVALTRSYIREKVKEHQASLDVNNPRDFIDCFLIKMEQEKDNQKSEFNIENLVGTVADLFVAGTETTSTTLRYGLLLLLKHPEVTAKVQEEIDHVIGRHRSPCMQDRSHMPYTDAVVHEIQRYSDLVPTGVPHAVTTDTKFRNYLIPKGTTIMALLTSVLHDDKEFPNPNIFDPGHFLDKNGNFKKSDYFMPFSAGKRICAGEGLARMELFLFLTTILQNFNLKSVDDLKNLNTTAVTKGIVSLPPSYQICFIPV

Cytochrome P450 2C9 = Cytochrome P450 2C9 (Homo sapiens, UniProt P11712); test: Inhibition of CYP2C9 (unknown origin); format: ADME
Cytochrome P450 2D6 = Cytochrome P450 2D6 (Homo sapiens, UniProt P10635); test: Inhibition of CYP2D6 (unknown origin); format: ADME
Cytochrome P450 3A4 = Cytochrome P450 3A4 (Homo sapiens, UniProt P08684); test: Inhibition of CYP3A4 (unknown origin); format: ADME
[15] = Half life in Wistar rat plasma at 3 mg/kg, iv by HPLC-MS/MS analysis
[16] = Half life in Wistar rat plasma at 3 mg/kg, po by HPLC-MS/MS analysis
[17] = Half life in Wistar rat brain at 3 mg/kg, po by HPLC-MS/MS analysis
in vivo [18] = conditions: Wistar, rat, iv, 3 mg/kg
in vivo [19] = conditions: Wistar, rat, po, 3 mg/kg
in vivo [20] = conditions: Wistar, rat, po, 3 mg/kg; remark: listed apart in the source
in vivo [21] = conditions: Wistar, rat, plasma, iv, 3 mg/kg
in vivo [22] = conditions: Wistar, rat, plasma, po, 3 mg/kg
in vivo [23] = conditions: Wistar, rat, brain, po, 3 mg/kg
in vivo [24] = conditions: Wistar, rat, plasma, iv, 3 mg/kg; remark: listed apart in the source
in vivo [25] = conditions: Wistar, rat, brain, po, 3 mg/kg; remark: listed apart in the source
in vivo [26] = conditions: Wistar, rat, brain, po, 3 mg/kg; remark: listed apart in the source

Chain of Voltage-gated inwardly rectifying potassium channel KCNH2 (Q12809 whole entry): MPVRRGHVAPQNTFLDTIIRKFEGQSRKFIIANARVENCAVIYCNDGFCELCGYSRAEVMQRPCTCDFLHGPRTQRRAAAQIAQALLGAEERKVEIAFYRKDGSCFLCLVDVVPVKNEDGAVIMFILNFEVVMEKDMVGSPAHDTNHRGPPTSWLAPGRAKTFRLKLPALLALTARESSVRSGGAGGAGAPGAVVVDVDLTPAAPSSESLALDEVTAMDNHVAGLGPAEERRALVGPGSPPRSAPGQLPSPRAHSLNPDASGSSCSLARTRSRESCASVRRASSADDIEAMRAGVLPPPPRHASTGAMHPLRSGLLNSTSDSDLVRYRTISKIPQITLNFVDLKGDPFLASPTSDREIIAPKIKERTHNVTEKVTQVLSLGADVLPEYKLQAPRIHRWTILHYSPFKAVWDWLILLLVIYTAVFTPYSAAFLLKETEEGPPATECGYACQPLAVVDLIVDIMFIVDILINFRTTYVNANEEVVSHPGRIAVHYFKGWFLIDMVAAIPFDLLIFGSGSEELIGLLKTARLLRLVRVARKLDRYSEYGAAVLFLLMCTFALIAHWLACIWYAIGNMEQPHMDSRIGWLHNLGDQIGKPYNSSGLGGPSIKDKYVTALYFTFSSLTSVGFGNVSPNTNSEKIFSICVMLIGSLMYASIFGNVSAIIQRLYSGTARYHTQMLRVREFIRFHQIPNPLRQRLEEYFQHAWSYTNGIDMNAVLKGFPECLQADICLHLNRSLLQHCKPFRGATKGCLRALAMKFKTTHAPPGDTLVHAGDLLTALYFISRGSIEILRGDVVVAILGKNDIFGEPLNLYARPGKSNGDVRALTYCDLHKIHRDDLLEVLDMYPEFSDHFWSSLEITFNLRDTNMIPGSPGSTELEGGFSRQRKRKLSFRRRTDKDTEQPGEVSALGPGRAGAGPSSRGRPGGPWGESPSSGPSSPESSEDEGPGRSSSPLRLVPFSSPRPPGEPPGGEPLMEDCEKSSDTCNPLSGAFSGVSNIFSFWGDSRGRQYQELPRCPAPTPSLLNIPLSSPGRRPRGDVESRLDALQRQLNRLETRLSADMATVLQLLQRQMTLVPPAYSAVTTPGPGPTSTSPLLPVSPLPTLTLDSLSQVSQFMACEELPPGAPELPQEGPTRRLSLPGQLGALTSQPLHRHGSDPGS
T1 sequence (P37288 whole entry): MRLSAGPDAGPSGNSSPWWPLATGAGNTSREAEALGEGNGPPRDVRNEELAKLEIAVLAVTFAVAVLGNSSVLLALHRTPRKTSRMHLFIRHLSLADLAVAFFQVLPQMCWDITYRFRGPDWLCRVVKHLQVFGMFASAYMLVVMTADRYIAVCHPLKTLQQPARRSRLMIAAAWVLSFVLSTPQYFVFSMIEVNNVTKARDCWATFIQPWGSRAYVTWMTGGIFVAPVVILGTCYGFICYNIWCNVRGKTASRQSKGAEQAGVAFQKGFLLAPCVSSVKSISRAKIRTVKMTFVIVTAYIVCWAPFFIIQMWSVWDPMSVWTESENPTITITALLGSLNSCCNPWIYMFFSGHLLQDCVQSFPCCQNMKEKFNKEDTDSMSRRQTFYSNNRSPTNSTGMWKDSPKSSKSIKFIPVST
Chain of Cytochrome P450 3A4 (P08684 whole entry): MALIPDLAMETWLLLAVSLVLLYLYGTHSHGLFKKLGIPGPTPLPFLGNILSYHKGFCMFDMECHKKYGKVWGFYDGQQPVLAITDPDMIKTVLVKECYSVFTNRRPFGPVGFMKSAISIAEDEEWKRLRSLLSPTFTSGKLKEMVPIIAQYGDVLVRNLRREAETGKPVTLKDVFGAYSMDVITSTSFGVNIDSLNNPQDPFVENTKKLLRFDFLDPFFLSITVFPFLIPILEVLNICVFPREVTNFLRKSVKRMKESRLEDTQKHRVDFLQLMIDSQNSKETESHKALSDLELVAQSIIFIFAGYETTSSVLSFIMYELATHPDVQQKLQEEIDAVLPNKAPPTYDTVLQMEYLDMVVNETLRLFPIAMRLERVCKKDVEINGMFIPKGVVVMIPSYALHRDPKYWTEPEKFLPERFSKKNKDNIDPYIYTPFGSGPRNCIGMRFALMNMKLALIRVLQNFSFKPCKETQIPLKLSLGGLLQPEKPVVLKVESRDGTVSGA
Chain of Cytochrome P450 2D6 (P10635 whole entry): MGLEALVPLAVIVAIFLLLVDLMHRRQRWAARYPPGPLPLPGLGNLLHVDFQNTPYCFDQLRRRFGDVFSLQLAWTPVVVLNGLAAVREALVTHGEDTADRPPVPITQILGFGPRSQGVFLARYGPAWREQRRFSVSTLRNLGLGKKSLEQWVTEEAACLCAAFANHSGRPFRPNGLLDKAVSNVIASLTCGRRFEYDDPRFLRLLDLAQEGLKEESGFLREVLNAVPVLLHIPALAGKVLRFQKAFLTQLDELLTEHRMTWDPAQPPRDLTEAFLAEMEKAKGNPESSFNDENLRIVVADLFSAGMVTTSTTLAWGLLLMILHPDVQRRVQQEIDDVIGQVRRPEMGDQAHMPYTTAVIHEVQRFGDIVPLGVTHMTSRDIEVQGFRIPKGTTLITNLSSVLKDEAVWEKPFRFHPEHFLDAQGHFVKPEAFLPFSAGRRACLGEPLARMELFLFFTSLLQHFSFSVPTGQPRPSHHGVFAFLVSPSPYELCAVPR
Chain of Cytochrome P450 2C9 (P11712 whole entry): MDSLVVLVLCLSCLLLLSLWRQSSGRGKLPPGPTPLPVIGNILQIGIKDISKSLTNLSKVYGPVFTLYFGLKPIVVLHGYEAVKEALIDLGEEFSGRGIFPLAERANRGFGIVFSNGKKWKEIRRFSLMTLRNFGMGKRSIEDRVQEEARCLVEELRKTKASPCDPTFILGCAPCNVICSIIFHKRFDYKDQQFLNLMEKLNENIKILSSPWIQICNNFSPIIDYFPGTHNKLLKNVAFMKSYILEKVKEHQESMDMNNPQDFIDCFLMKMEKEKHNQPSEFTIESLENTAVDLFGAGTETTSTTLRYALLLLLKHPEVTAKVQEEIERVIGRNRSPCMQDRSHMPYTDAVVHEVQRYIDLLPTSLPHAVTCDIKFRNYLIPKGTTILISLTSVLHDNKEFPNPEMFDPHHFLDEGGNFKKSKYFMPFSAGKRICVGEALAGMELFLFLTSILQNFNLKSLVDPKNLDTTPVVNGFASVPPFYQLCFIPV

SMILES	efflux ratio at 10 µM [1]	IC50 (Vasopressin V1a receptor [2])	CLH [3]	microsomal CLint at 1 µM (in vitro [4])	microsomal CLint at 1 µM (in vitro [5])	Papp A→B at 10 µM [7]	IC50 [8]	microsomal CLint at 1 µM (in vitro [9])	Ki (Vasopressin V1a receptor [11])	inhibition in vivo at 10 mg/kg (animal or person [12])	inhibition in vivo at 3 mg/kg (animal or person [13])	other results
Clc1cnc2n1CCCc1nnc([C@H]3CC[C@H](Oc4ccccn4)CC3)n1-2	0.8	0.178 µM	41 µL/min/mg	12 µL/min/mg	15 µL/min/mg							inhibition in vivo at 10 mg/kg (animal or person [6]): 32%
Clc1ccc2c(c1)CC1(Cc3nnc([C@H]4CC[C@H](Oc5ccccn5)CC4)n3-2)OCCCCO1		0.0011 µM	10.2 mL/h/kg	229 µL/min/mg	211 µL/min/mg							
Clc1ccc2c(c1)CC1(Cc3nnc([C@H]4CC[C@H](N5CCOCC5)CC4)n3-2)OCCO1	15			6 µL/min/mg		4.5 ×10⁻⁶ cm/s	3.5 µM	7 µL/min/mg				
N#CCC(=O)N[C@@H]1Cc2cc(Cl)ccc2-n2c(nnc2[C@H]2CC[C@H](Oc3ccccn3)CC2)C1	118			15 µL/min/mg		0.5 ×10⁻⁶ cm/s		19 µL/min/mg				microsomal CLint at 1 µM (in vitro [10]): 13 µL/min/mg
Clc1ccc2c(c1)CC1(CCOC1)Cc1nnc([C@H]3CC[C@H](Oc4ccccn4)CC3)n1-2 (some centres not stated)		0.0013 µM	1.56 mL/h/kg	42 µL/min/mg				80 µL/min/mg	0.0003 µM			
O=C1Cc2cc(Cl)ccc2-n2c(nnc2[C@H]2CC[C@H](Oc3ccccn3)CC2)C1			7.44 mL/h/kg	43 µL/min/mg	36 µL/min/mg		> 30 µM			70%	58%	
CO[C@H]1Cc2cc(Cl)ccc2-n2c(nnc2[C@H]2CC[C@H](Oc3ccccn3)CC2)C1	2.7	0.0006 µM		33 µL/min/mg		40 ×10⁻⁶ cm/s	10.2 µM	66 µL/min/mg	0.002 µM	71%	69%	
CC(C)(O)C(=O)N[C@@H]1Cc2cc(Cl)ccc2-n2c(nnc2[C@H]2CC[C@H](Oc3ccccn3)CC2)C1	37			3 µL/min/mg		1.8 ×10⁻⁶ cm/s		16 µL/min/mg				microsomal CLint at 1 µM (in vitro [10]): 1 µL/min/mg
Clc1ccc2c(c1)CC1(CCCOC1)Cc1nnc([C@H]3CC[C@H](Oc4ccccn4)CC3)n1-2 (some centres not stated)		0.023 µM	15.4 mL/h/kg	267 µL/min/mg				263 µL/min/mg	0.0003 µM			
COCC1Cc2cc(Cl)ccc2-n2c(nnc2[C@H]2CC[C@H](Oc3ccccn3)CC2)C1 (some centres not stated)	1	0.0008 µM	2.76 mL/h/kg		126 µL/min/mg	30 ×10⁻⁶ cm/s			0.0006 µM			
O=C(N[C@@H]1Cc2cc(Cl)ccc2-n2c(nnc2[C@H]2CC[C@H](Oc3ccccn3)CC2)C1)C(F)(F)F	2.9			4 µL/min/mg		11 ×10⁻⁶ cm/s		18 µL/min/mg				microsomal CLint at 1 µM (in vitro [10]): 2 µL/min/mg
CO[C@@H]1Cc2cc(Cl)ccc2-n2c(nnc2[C@H]2CC[C@H](Oc3ccccn3)CC2)C1	0.9	0.0006 µM		41 µL/min/mg		38 ×10⁻⁶ cm/s	13.8 µM	25 µL/min/mg	0.0002 µM	67%	73%	inhibition in vivo at 10 mg/kg (animal or person [14]): > 60%
FC(F)(F)[C@H]1CC[C@H](c2nnc3n2-c2ccc(Cl)cc2CC2(C3)OCCO2)CC1	1		0.012 mL/h/kg	16 µL/min/mg	34 µL/min/mg	39 ×10⁻⁶ cm/s	> 30 µM			41%	0%	
Clc1ccc2c(c1)CC1(Cc3nnc([C@H]4CC[C@H](Oc5ccccn5)CC4)n3-2)OCCO1												IC50 (Cytochrome P450 1A2): > 10 µM; IC50 (Cytochrome P450 2B6): > 10 µM; IC50 (Cytochrome P450 2C8): > 10 µM; IC50 (Cytochrome P450 2C9): > 10 µM; IC50 (Cytochrome P450 2D6): > 10 µM; IC50 (Cytochrome P450 3A4): > 10 µM
OC1Cc2cc(Cl)ccc2-n2c(nnc2[C@H]2CC[C@H](Oc3ccccn3)CC2)C1 (mixture of isomers)	5.9		0.024 mL/h/kg	17 µL/min/mg	6 µL/min/mg	20 ×10⁻⁶ cm/s	> 30 µM			91%	87%	half-life [15]: 1 h; half-life [16]: 1.5 h; half-life [17]: 1.43 h; AUC(0-t) (in vivo [18]): 0.876 µM·h; AUC(0-t) (in vivo [19]): 0.897 µM·h; AUC(0-t) (in vivo [20]): 0.481 µM·h; Cmax (in vivo [21]): 469 nM; Cmax (in vivo [22]): 403 nM; Cmax (in vivo [23]): 190 nM; Tmax (in vivo [24]): 0.3 h; Tmax (in vivo [25]): 0.5 h; Kp (in vivo [26]): 0.54
CN1Cc2cc(Cl)ccc2-n2c(nnc2[C@H]2CC[C@H](Oc3ccccn3)CC2)C1 [BALOVAPTAN]			51 µL/min/mg	17 µL/min/mg	22 µL/min/mg	51 ×10⁻⁶ cm/s	21 µM			69%	7%	
